Active and inactive are the calls of the source.
How the values were obtained:
[1] = target: T1, Cytochrome P450 1A2 (Homo sapiens, UniProt P05177);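 also: PubChem cytochrome P450 panel assay, CYP1A2 panel member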
T1 sequence (P05177 whole entry): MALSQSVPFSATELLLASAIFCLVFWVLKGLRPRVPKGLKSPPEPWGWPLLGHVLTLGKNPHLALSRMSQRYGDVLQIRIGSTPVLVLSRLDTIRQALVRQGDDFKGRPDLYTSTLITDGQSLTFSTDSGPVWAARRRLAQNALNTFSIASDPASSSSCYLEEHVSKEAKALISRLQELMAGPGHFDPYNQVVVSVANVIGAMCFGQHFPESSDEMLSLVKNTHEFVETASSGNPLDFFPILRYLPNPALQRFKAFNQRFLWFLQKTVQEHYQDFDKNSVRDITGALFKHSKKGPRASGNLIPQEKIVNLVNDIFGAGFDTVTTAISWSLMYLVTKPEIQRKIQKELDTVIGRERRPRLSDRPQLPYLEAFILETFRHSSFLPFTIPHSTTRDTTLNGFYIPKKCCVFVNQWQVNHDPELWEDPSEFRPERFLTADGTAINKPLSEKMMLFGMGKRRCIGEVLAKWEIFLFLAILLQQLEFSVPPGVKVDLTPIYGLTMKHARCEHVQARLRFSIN

[2] = target: Cytochrome P450 3A4 (Homo sapiens, UniProt P08684);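 also: CYP3A4 tested as one member of a cytochrome P450 panel screen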
Sequence of Cytochrome P450 3A4 (P08684 whole entry): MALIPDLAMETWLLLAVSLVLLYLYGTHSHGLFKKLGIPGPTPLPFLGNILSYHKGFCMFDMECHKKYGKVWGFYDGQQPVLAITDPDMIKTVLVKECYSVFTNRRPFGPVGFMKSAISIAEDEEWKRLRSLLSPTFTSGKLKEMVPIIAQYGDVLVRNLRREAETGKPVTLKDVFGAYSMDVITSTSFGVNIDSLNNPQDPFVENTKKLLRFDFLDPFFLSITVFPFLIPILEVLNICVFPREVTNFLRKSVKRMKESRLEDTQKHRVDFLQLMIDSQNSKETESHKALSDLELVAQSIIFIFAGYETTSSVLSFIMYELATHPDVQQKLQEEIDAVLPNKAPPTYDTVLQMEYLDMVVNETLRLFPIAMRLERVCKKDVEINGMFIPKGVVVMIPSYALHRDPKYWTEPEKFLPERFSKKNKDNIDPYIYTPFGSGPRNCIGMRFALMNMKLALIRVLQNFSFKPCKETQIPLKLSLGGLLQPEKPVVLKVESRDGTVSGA

[3] = target: T2, Coagulation factor XII (Homo sapiens, UniProt P00748); format: functional;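 also: activated factor XIIa alpha cleaving a fluorogenic AMC peptide substrate; inhibitor potency from loss of enzyme activity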
T2 sequence (P00748 whole entry): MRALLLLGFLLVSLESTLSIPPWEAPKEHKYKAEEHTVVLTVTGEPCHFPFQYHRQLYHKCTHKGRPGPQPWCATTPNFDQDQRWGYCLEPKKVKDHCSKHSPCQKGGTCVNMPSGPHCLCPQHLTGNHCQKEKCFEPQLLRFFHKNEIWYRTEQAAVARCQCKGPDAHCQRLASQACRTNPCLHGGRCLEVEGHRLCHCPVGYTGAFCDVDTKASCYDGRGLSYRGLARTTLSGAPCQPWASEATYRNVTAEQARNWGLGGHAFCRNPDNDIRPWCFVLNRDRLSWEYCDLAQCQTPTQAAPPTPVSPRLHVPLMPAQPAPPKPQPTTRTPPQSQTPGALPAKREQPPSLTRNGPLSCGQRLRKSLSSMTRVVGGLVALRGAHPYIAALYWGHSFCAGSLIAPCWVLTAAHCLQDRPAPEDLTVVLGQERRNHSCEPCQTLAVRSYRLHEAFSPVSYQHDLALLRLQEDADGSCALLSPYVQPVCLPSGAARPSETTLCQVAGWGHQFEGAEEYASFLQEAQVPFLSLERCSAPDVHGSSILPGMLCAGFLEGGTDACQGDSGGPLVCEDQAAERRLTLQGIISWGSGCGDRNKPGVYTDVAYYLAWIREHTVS

[4] = target: T3, Alkaline phosphatase, tissue-nonspecific isozyme (Homo sapiens, UniProt P05186); test: potency against alkaline phosphatase TNAP – biochemical, luminescent, dose response, SAR follow-up (AID 1056)
T3 sequence (P05186 whole entry): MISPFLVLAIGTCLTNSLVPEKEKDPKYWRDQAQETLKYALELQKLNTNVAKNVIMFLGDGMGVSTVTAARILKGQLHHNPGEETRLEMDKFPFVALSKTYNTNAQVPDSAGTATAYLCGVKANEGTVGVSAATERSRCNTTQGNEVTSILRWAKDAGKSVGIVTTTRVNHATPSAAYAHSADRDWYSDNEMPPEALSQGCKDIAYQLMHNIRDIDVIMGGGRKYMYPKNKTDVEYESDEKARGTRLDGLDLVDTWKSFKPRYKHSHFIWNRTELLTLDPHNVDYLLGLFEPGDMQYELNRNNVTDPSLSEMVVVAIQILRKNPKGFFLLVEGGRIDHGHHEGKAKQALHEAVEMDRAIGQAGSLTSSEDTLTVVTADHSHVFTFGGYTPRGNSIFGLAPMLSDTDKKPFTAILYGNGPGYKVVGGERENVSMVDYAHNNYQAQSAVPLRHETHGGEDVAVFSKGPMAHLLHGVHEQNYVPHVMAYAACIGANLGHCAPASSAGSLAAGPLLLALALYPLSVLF

[5] = luciferase reporter signal suppression in cells – H4 neuroglioma cells, luminescence, dose response (AID 1990); format: functional, cell-based
[6] = loss of viability in HepG2 cells – cell-based, CellTiter-Glo, cherry-picked, cytotoxicity control for Shn3 inhibitor project, dose response (AID 624134); format: functional
[7] = Luminescence Cell-Based Dose Response HTS to Identify Inhibitors of 5'UTR Stem-Loop Driven Prion Protein mRNA Translation in H4 Neuroglioblastoma Cells. [Related pubchem assays: 1827 (Project Summary), 1813 (Primary HTS)]; format: functional
[8] = non-specific 3'UTR reporter inhibition in Clone20-Shn3RL – cell-based, Renilla luciferase, cherry-picked, counter-screen for Shn3 inhibitor project, dose response (AID 624133); format: functional
[9] = target: Protein Wnt-3a (Mus musculus, UniProt P27467); test: antagonism of Wnt3a pathway luciferase reporter – Wnt-LIGHT cells, luminescence, selectivity assay for Gli-SUFU antagonist project, dose response (AID 651570); format: functional; conditions: read-out: IC50_Mean;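 also: Wnt-LIGHT reporter cells stimulated with conditioned medium from Wnt3a-producing cells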
Sequence of Protein Wnt-3a (P27467 whole entry): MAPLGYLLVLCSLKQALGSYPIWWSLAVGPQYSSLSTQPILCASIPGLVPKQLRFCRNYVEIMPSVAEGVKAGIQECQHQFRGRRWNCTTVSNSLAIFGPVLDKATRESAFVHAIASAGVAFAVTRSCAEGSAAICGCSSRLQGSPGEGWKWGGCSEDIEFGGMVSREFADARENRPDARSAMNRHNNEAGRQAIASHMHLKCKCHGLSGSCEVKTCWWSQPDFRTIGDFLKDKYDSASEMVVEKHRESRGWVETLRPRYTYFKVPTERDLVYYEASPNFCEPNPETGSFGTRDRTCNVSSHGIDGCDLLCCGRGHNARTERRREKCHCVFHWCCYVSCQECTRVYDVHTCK

[10] = target: T4, Short transient receptor potential channel 4 (Mus musculus, UniProt Q9QUQ5); test: block of DAMGO-driven TRPC4 calcium entry – cell-based, HEK293 TRPC4/mu-opioid, Fluo-4 calcium, dose response (AID 434942); format: functional;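 also: potency of inhibitors blocking the TRPC4 calcium response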
T4 sequence (Q9QUQ5 whole entry): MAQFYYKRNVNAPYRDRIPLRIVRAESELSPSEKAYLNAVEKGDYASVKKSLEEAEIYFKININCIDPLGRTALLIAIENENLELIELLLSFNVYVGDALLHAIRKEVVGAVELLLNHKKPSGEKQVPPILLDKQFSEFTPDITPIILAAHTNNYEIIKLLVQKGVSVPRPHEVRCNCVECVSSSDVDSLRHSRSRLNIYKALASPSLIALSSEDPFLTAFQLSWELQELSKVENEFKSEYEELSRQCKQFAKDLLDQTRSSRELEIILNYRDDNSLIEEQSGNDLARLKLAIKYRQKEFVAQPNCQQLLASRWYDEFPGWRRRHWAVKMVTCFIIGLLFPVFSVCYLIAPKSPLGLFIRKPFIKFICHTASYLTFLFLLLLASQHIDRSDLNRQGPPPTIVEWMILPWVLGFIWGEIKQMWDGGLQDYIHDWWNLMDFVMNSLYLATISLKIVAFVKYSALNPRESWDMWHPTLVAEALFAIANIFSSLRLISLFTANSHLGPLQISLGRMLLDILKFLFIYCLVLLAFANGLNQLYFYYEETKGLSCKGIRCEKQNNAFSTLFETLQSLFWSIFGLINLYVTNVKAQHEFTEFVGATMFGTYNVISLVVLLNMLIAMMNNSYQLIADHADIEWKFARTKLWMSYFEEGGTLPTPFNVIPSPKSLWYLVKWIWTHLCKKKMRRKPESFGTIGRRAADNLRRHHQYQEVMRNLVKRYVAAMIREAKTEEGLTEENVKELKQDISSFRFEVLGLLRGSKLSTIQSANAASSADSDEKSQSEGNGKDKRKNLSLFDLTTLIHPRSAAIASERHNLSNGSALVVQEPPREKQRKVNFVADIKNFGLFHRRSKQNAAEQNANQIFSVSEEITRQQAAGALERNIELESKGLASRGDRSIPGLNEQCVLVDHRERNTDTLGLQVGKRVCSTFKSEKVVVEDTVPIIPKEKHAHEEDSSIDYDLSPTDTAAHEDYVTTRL

[11] = alpha-synuclein stem-loop luciferase translation blockers – H4 neuroglioma cells, luminescence, confirmation (AID 1988); format: functional, cell-based
[12] = target: T4, Short transient receptor potential channel 4; test: calcium entry via TRPC4 opening agents – cell-based, HEK293 TRPC4/mu-opioid, Fluo-4 calcium, dose response (AID 434937); format: functional
[13] = reduction of Shn3 3'UTR-driven luciferase in osteoblasts – cell-based, Clone20 osteoblasts, firefly luciferase, cherry-picked, dose response (AID 624132); format: functional;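 also: firefly luciferase luminescence from reporter carrying the Shn3 3'UTR in osteoblasts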
[14] = system: HEK293; test: inhibition of NOD1-driven NF-kB reporter – cell-based, luminescence, uHTS, primary screen (AID 1578); format: functional; conditions: Homo sapiens
[15] = target: Nucleotide-binding oligomerization domain-containing protein 2 (Homo sapiens, UniProt Q9HC29); test: inhibition of NOD2-driven NF-kB reporter – cell-based, luminescence, uHTS, HEK293 (AID 1566); format: functional
Sequence of Nucleotide-binding oligomerization domain-containing protein 2 (Q9HC29 whole entry, the tested form may be a part): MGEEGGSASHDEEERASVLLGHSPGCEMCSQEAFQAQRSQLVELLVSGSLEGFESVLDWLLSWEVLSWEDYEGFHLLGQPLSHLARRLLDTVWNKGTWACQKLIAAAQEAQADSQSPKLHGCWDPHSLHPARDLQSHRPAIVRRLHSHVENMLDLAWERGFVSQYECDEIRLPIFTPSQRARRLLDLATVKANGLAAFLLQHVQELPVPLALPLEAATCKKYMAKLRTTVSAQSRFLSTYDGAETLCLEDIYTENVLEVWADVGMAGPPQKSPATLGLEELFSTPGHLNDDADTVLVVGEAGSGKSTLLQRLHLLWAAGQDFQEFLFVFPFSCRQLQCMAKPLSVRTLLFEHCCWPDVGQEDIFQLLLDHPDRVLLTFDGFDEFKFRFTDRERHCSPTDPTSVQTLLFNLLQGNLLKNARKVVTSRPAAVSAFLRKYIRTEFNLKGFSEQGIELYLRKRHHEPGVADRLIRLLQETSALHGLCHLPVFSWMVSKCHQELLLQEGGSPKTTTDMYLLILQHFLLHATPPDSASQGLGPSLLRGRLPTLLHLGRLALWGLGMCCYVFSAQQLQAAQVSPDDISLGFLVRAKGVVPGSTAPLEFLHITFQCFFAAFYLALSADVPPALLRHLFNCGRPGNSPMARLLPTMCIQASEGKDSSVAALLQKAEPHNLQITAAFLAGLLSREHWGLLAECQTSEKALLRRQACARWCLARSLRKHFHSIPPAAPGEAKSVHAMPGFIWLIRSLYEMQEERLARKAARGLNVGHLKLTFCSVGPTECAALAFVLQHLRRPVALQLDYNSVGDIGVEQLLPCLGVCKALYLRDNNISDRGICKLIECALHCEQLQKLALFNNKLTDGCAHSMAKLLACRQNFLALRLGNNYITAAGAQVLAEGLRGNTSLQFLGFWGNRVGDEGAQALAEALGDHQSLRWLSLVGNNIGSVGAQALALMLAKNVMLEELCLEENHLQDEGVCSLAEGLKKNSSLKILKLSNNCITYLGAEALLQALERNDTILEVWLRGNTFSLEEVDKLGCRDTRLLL

[16] = system: INS1; test: INS-1E survival protection against cytokine death – cell-based, luminescence, retest, dose response (AID 449756); format: functional; conditions: Rattus norvegicus;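 also: cell death triggered by IL-1 beta plus TNF-alpha plus IFN-gamma mixture; protective hits raise ATP signal compared with cytokine alone wells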
[17] = system: HEK293; test: cells; format: functional, cell-based; conditions: Homo sapiens
[18] = system: HEK293; test: NOD2 signaling inhibitors in MDP-stimulated cells, cell-based, uHTS, luminescence (AID 2001); format: functional; conditions: Homo sapiens
[19] = system: HEK293; test: cells; format: functional, cell-based; conditions: Homo sapiens; remark: listed apart in the source
[20] = Luminescence Cell-Based Dose Retest to Confirm Inhibitors of Cancer Stem Cells. [Related pubchem assays (depositor defined):AID2717, AID2721]; format: functional; conditions: Homo sapiens
[21] = system: HEK293; test: cells; format: functional, cell-based; conditions: Homo sapiens; remark: listed apart in the source
[22] = cells; format: functional
[23] = microbe, parasite or virus in culture; format: functional; conditions: Mycobacterium tuberculosis
[24] = THP-1 cell cytotoxicity, dose response, cytotoxicity control for non-replicating M. tuberculosis project (AID 489025); format: functional
[25] = Vero E6 cell cytotoxicity, dose response, cytotoxicity control for non-replicating M. tuberculosis project, secondary assay (AID 492998); format: functional, VeroE6; conditions: Vero C1008
[26] = target: T5, Neuropeptides B/W receptor type 1 (Homo sapiens, UniProt P48145); test: Fluorescence-based dose response cell-based high throughput screening assay to identify antagonists of the G-protein coupled receptor 7 (GPR7). [Related pubchem assays: 1952 (Screening assay (GPR7 antagonists).), 1880 (Summary AID.)]; format: functional
T5 sequence (P48145 whole entry): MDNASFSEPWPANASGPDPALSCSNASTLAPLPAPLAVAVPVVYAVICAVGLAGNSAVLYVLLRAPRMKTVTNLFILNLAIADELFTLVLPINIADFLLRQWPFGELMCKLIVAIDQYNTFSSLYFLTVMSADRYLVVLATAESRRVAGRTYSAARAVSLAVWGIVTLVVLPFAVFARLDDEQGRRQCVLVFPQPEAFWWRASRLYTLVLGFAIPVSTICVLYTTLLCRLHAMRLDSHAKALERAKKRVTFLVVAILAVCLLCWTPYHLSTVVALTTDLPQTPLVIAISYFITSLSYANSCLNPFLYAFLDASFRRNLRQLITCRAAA

[27] = target: Melanin-concentrating hormone receptor 1 (Homo sapiens, UniProt Q99705); test: Fluorescence-based counterscreen for antagonists of the G-protein coupled receptor 7 (GPR7): cell-based high throughput dose response assay to identify antagonists of the melanin-concentrating hormone receptor 1 (MCHR1).; format: functional
Sequence of Melanin-concentrating hormone receptor 1 (Q99705 whole entry): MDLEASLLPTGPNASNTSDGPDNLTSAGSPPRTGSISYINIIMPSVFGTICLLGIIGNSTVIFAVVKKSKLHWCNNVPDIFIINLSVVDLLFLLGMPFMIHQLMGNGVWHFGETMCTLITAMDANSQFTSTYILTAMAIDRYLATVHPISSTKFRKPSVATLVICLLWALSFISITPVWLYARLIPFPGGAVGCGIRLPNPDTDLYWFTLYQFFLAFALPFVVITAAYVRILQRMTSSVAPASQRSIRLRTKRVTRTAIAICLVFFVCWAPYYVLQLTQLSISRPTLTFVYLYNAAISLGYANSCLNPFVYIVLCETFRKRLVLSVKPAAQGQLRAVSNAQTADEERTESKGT

[28] = target: Glyceraldehyde-3-phosphate dehydrogenase (Homo sapiens, UniProt P04406)
Sequence of Glyceraldehyde-3-phosphate dehydrogenase (P04406 whole entry): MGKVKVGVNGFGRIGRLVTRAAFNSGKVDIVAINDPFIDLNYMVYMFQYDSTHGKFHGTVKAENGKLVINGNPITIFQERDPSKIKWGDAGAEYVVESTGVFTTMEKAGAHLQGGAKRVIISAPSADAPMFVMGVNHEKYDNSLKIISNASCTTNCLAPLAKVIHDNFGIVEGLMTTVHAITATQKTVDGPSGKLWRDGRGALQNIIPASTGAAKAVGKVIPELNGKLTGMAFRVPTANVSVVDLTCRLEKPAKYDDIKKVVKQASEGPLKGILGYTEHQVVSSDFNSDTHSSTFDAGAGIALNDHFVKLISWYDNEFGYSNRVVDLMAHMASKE

For `O=c1c(-c2ccc(Cl)cc2)nc2cnc(N3CCOCC3)nc2n1CCc1ccccc1`, the AC50 [1] was 2 µM (inconclusive) and the AC50 [2] was “inconclusive”.

In the case of `O=C(Nc1ccccc1Cl)C1CC(=O)N(c2ccccc2)C1` (stereo not given), the IC50 [3] is reported as > 50 µM (inactive).

In the case of `CCOc1ccc(C(C)(C)C)cc1S(=O)(=O)Nc1cccnc1`, the IC50 [4] is reported as 12.5 µM (active).

For `COc1ccccc1NS(=O)(=O)c1cccc(C(=O)NC2CCN(Cc3ccccc3)CC2)c1`, the EC50 [5] was > 120 µM (not active), the AC50 [6] was 0.52 µM (active) and the EC50 [7] was > 120 µM (not active). The AC50 [8] was 1.8 µM (active), the IC50 [9] was 4.3 µM (active) and the EC50 [10] was 0.376 µM (active). The EC50 [11] was > 120 µM (not active), the EC50 [12] was 0.944 µM (active) and the AC50 [13] was 1.95 µM (active).

For `O=C(Nc1ccccc1)N1CCC2(CC1)CCN(C(=O)c1cccc(F)c1)CC2`, the AC50 [1] was 10 µM (inconclusive) and the AC50 [2] was “inconclusive”.

For `CC(C)(C)C1CCC2(CC1)C(C#N)=C(SCC(=O)NC1CCCCC1)NC(=O)C2C#N` (stereo not given), the EC50 [14] was 6.58 µM (active), the EC50 [15] was 17.6 µM (active) and the AC50 [16] was 8.73 µM (active). The IC50 [17] was 13.6 µM (active), the IC50 [18] was 9.18 µM (active) and the IC50 [19] was > 20 µM (inactive). For the same compound, the AC50 [20] was 6.34 µM (active) and the IC50 [21] was 9.32 µM (active).

In the case of `CC1CCCN(CCOCCOc2ccccc2-c2ccccc2)C1` (stereo not given), the EC50 [10] is reported as 0.335 µM (active) and the EC50 [12] is reported as 0.421 µM (active).

In the case of `Cn1cccc1C(=O)N1CCC2(CC1)CCN(C(c1ccccc1)c1ccccc1)CC2`, the AC50 [1] is reported as 5.01 µM (inconclusive) and the AC50 [2] is reported as “inconclusive”.

In the case of `COC(=O)c1ccc(Nc2nc(C)cc(=O)[nH]2)cc1`, the IC50 [3] is reported as > 50 µM (inactive).

With `N#Cc1cccc(NC(=O)N2CCC3(CC2)CCN(C(=O)c2cccc(F)c2)CC3)c1` the AC50 [2] was “inconclusive”.

For `CCCCn1c(=O)c(C(=O)Nc2ncccc2C)c(O)c2ccccc21`, the IC50 [22] was 17.3 µM (active), the CC50 [23] was 29.3 µM (active) and the CC50 [24] was > 40 µM (active). For the same compound, the CC50 [25] was > 20 µM (active).

For `CCCCC(c1nnnn1C1CCCC1)N1CCN(C2CCCCC2)CC1` (stereo not given), the IC50 [26] was > 43.8 µM (not active) and the IC50 [27] was > 43.8 µM (not active).

In the case of `O=[N+]([O-])c1cncc([N+](=O)[O-])c1Nc1ccccc1Cl`, the IC50 [22] is reported as 8.86 µM (active) and the IC50 [3] is reported as > 50 µM (inactive).

For `COc1ccc(S(=O)(=O)Nc2ccc3ccccc3c2)cc1OC`, the IC50 [4] was > 100 µM (inactive) and the IC50 [28] was > 100 µM (not active).

With `COc1ccc2c(c1)CCc1c(C(=O)NCc3ccc(F)cc3)noc1-2` the IC50 [3] was 3.61 µM (active).
